We go through four molecules from patent publication US20240110915A1, “METHODS, PRODUCTS AND SYSTEMS FOR PROGNOSIS OF SUBJECTS SUFFERING FROM MULTIPLE MYELOMA” (University of South Australia, priority 2020, published 2024).

One data set has as its system DSG2. The data set can be described thus: DSG2 protein knockdown in KMS-11 cells by Western blot. The class given is cell-based, human. The following applies: stable shRNA expression. The text has this: Lentiviral vectors (pGIPZ) expressing DSG2-shRNA and non-silencing control-shRNA were obtained from Open Biosystem (Dharmacon). The following shRNA sequences were cloned into the pGIPZ expression plasmid: 5′-TGGATGTCAATGACAATAT-3′ (DSG2-shRNA60) (SEQ ID NO. 2); 5′-CCAGTGTTCTACCTAAATA-3′ (DSG2-shRNA62) (SEQ ID NO. 3); and
5′-[…]-3′ (non-silencing shRNA) (SEQ ID NO. 4). Replication incompetent lentiviral particles were generated by transiently co-transfecting HEK293T cells with ViraPower Lentiviral Support Kit (Invitrogen) and pGIPZ-shRNA vectors using Lipofectamine 2000 (Invitrogen). […]
KMS-11 cells cultured on 100 mm Petri dishes were washed twice with ice-cold PBS and solubilized in RIPA lysis buffer (150 mM NaCl, 50 mM Tris-HCl, pH 7.5, 1% Triton X-100, 1% deoxycholate, 0.1% SDS, and 2 mM EDTA) containing both protease (cOmplete™, Roche) and phosphatase inhibitors (PhosStop™, Roche) for 10 min on ice. The lysates were clarified by centrifugation at 13,000×g for 10 min at 4° C., and protein concentrations determined using the bicinchoninic acid protein assay kit (Pierce). […] After washing, immunoreactivity was detected by using the Odyssey infrared imager (Li-COR). […] Band intensities were quantitated by densitometry using the software associated with the Odyssey infrared imager (Li-COR).
Background: A western blot detects proteins with antibodies after separation by electrophoresis.

Data set [1] deals with KMS-11 human multiple myeloma cells. The data set can be described thus: Cell viability by AnnexinV staining, flow cytometric analysis. To be noted: overnight exposure, 4 nM. It counts as cell-based. An excerpt:
(§1) Lentiviral vectors (pGIPZ) expressing DSG2-shRNA and non-silencing control-shRNA were obtained from Open Biosystem (Dharmacon) and cloned into the pGIPZ expression plasmid: 5′-TGGATGTCAATGACAATAT-3′ (SEQ ID NO: 2; DSG2-shRNA60); 5′-CCAGTGTTCTACCTAAATA-3′ (SEQ ID NO:3; DSG2-shRNA62); and 5′-[…]-3′ (SEQ ID NO: 4; non-silencing shRNA). Replication incompetent lentiviral particles were generated by transiently co-transfecting HEK293T cells with ViraPower Lentiviral Support Kit (Invitrogen) and pGIPZ-shRNA vectors using Lipofectamine 2000 (Invitrogen). Lentiviral supernatant was harvested 72 hours post-transfection and used to transduce 1×10^5 KMS-11 cells that were seeded in a 6-well plate, in the presence of 4 μg/mL polybrene. Puromycin (1 μg/mL) was continually added to maintain culture of cells with the transduced vectors and DSG2 expression was routinely checked using flow cytometry and western blot. Cell without and with DSG2 KD were cultured with increasing concentrations of Bortezomib (2-4 nM, (Janssen Cilag, New Brunswick NJ)) and after 12 hours the cell viability was determined using AnnexinV staining using flow cytometric analysis.
On the technique in general: A flow cytometer gives signals particle by particle.

Data set [2] relates to KMS-11 cells with stable knockdown of DSG2 (DSG2 shRNA). Description: Cell viability by AnnexinV staining, cells with stable DSG2 knockdown. The following applies: over 12 hours at 2 nM and 4 nM; compared with cells without knockdown. The class given is cell-based, human.
Text: as §1

The target in data set [3] is human desmoglein 2 (DSG2) (human) (UniProt Q14126). Description: cell-based or functional assay.

In the case of “5′-TGGATGTCAATGACAATAT-3′ [DSG2-shRNA60]”, the “knockdown of DSG2 protein” value in the data set with DSG2 was “Efficient knockdown”.
For the molecule `CC(C)C[C@H](NC(=O)[C@H](Cc1ccccc1)NC(=O)c1cnccn1)B(O)O` [Bortezomib], the “viability of KMS-11 human multiple myeloma cells” value in data set [1] was “reduced”. Further, the “sensitivity to Bortezomib (cell viability) of KMS-11 cells with stable DSG2 knockdown” value in data set [2] is on record as “even further increased sensitivity”.
Regarding “5′-CCAGTGTTCTACCTAAATA-3′ [DSG2-shRNA62]”, the “knockdown of DSG2 protein” value in the data set on DSG2 is listed as “Efficient knockdown”.
As for “human desmoglein 2 (DSG2) (from UniProt Q14126 50-1118)”, in data set [3], the reduction in adhesion of KMS-11 cells with DSG2 knockdown (shRNA construct A) to a BMEC-DSG2 monolayer, compared to the NT control cell line was determined as 28.1% and the reduction in adhesion of KMS-11 cells with DSG2 knockdown (shRNA construct C) to a BMEC-DSG2 monolayer, compared to the NT control cell line was found to be 35.6%.
